The source of these data is patent US9884063B2, “Amido-substituted azole compounds” (Bayer Pharma Aktiengesellschaft, priority 2014, dated 2018).

The IC50 is the midpoint of a concentration-inhibition curve. A high value points to lower potency.

Molecules are shown by their SMILES.

The assay deals with T1, TNKS1 (Homo sapiens, UniProt O95271).
T1 sequence (O95271 1-1327): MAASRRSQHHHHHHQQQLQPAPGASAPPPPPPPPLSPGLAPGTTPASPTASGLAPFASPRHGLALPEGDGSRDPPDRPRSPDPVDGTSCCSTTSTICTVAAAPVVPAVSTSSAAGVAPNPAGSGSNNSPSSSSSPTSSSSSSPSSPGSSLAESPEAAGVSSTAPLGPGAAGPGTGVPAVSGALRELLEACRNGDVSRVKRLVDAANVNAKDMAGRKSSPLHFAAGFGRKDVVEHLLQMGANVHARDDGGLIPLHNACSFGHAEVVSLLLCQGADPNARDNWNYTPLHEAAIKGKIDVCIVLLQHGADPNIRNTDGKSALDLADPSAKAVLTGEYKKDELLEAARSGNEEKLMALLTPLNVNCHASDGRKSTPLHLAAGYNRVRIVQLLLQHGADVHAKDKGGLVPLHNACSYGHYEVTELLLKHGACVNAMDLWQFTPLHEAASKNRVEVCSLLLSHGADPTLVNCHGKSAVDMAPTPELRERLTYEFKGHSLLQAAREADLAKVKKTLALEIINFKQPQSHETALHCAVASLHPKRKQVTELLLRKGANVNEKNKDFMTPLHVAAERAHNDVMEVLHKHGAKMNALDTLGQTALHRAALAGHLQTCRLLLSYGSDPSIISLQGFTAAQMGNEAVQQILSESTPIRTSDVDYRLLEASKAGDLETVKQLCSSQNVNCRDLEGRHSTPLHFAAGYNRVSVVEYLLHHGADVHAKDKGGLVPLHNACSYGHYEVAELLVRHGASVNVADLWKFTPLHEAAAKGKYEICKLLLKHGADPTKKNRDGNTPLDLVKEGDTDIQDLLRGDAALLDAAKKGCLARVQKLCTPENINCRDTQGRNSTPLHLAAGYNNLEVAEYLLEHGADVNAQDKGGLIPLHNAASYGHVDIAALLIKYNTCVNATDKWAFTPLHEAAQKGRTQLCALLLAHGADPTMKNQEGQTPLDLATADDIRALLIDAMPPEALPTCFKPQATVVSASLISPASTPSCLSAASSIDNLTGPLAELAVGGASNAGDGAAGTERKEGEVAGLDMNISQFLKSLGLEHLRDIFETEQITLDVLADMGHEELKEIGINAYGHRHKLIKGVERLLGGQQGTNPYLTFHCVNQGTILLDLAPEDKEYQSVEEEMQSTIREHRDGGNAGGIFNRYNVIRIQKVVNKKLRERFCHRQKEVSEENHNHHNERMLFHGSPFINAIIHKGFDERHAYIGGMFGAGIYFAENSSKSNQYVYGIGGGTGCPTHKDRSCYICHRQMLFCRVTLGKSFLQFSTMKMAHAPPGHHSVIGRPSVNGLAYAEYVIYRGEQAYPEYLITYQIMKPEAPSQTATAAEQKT
Put plainly: Modified TNKS1 Assay 2 (auto-parsylation, [3H]-NAD+ SPA). The format is biochemical. The note with it: 6 nM TNKS1, 96 well.
Turning to `CNC(=O)c1nc[nH]c1C(=O)Nc1ccc(NC(=O)c2ccc(Br)cc2Cl)cc1` [Example 334, N^5-{4-[(4-bromo-2-chlorobenzoyl)amino]phenyl}-N^4-methyl-1H-imidazole-4,5-dicarboxamide], half-maximal inhibition (IC50) required 60 nM.
To `CNC(=O)c1nc[nH]c1C(=O)Nc1ccc(NC(=O)c2ccc(F)c(Cl)c2)cc1` [Example 340, N^5-{4-[(3-chloro-4-fluorobenzoyl)amino]phenyl}-N^4-methyl-1H-imidazole-4,5-dicarboxamide] belongs > 10000 nM; to `CNC(=O)c1nc[nH]c1C(=O)Nc1ccc(NC(=O)c2c(F)cc(F)cc2F)cc1` [Example 342, N^4-methyl-N^5-{4-[(2,4,6-trifluorobenzoyl)amino]phenyl}-1H-imidazole-4,5-dicarboxamide], 640 nM; to `CNC(=O)c1nc[nH]c1C(=O)Nc1ccc(NC(=O)c2c(C)cccc2Cl)cc1` [Example 343, N^5-{4-[(2-chloro-6-methylbenzoyl)amino]phenyl}-N^4-methyl-1H-imidazole-4,5-dicarboxamide], 2000 nM.
`CNC(=O)c1nc[nH]c1C(=O)Nc1ccc(NC(=O)c2ccc(C)c(Cl)c2)cc1` [Example 344, N^5-{4-[(3-chloro-4-methylbenzoyl)amino]phenyl}-N^4-methyl-1H-imidazole-4,5-dicarboxamide]: the IC50 was > 10000 nM.
In turn, `CNC(=O)c1nc[nH]c1C(=O)Nc1ccc(NC(=O)c2cc(C#N)ccc2F)cc1` [Example 349, N^5-{4-[(5-cyano-2-fluorobenzoyl)amino]phenyl}-N^4-methyl-1H-imidazole-4,5-dicarboxamide] gave an IC50 of 2700 nM.
`CNC(=O)c1nc[nH]c1C(=O)Nc1ccc(NC(=O)c2cc(C(F)(F)F)ccc2Cl)cc1` [Example 352, N^5-(4-{[2-chloro-5-(trifluoromethyl)benzoyl]amino}phenyl)-N^4-methyl-1H-imidazole-4,5-dicarboxamide]: the IC50 was found to be 580 nM.
Next, `CNC(=O)c1nc[nH]c1C(=O)Nc1ccc(NC(=O)c2cccc(Cl)n2)cc1` [Example 353, N^5-(4-{[(6-chloropyridin-2-yl)carbonyl]amino}phenyl)-N^4-methyl-1H-imidazole-4,5-dicarboxamide]: > 10000 nM; `CNC(=O)c1nc[nH]c1C(=O)Nc1ccc(NC(=O)c2ncccc2C)cc1` [Example 356, N^4-methyl-N^5-(4-{[(3-methylpyridin-2-yl)carbonyl]amino}phenyl)-1H-imidazole-4,5-dicarboxamide]: 2000 nM; `CNC(=O)c1nc[nH]c1C(=O)Nc1ccc(NC(=O)c2ccc(F)c(Cl)c2F)cc1` [Example 359, N^5-{4-[(3-chloro-2,4-difluorobenzoyl)amino]phenyl}-N^4-methyl-1H-imidazole-4,5-dicarboxamide]: > 10000 nM.
The molecule `CNC(=O)c1nc[nH]c1C(=O)Nc1ccc(NC(=O)c2cc(F)ccc2Cl)cc1` [Example 361, N^5-{4-[(2-chloro-5-fluorobenzoyl)amino]phenyl}-N^4-methyl-1H-imidazole-4,5-dicarboxamide] showed a half-maximal inhibitory concentration (IC50) of 140 nM.
Next, `CNC(=O)c1nc[nH]c1C(=O)Nc1ccc(NC(=O)c2cc(C)ccn2)cc1` [Example 363, N^4-methyl-N^5-(4-{[(4-methylpyridin-2-yl)carbonyl]amino}phenyl)-1H-imidazole-4,5-dicarboxamide]: > 10000 nM; `CNC(=O)c1nc[nH]c1C(=O)Nc1ccc(NC(=O)c2cc(F)ccc2OC)cc1` [Example 364, N^5-{4-[(5-fluoro-2-methoxybenzoyl)amino]phenyl}-N^4-methyl-1H-imidazole-4,5-dicarboxamide]: 6100 nM.
Turning to `CNC(=O)c1nc[nH]c1C(=O)Nc1ccc(NC(=O)c2cncc(C)c2)cc1` [Example 366, N^4-methyl-N^5-(4-{[(5-methylpyridin-3-yl)carbonyl]amino}phenyl)-1H-imidazole-4,5-dicarboxamide], the IC50 is > 10000 nM.
To `CNC(=O)c1nc[nH]c1C(=O)Nc1ccc(NC(=O)c2cccc(F)c2OC)cc1` [Example 367, N^5-{4-[(3-fluoro-2-methoxybenzoyl)amino]phenyl}-N^4-methyl-1H-imidazole-4,5-dicarboxamide] belongs > 10000 nM.
In the case of `CNC(=O)c1nc[nH]c1C(=O)Nc1ccc(NC(=O)c2cccc(F)c2Cl)cc1` [Example 370, N^5-{4-[(2-chloro-3-fluorobenzoyl)amino]phenyl}-N^4-methyl-1H-imidazole-4,5-dicarboxamide], the IC50 is > 10000 nM.
In turn, `CNC(=O)c1nc[nH]c1C(=O)Nc1ccc(NC(=O)c2nccnc2Cl)cc1` [Example 372, N^5-(4-{[(3-chloropyrazin-2-yl)carbonyl]amino}phenyl)-N^4-methyl-1H-imidazole-4,5-dicarboxamide] came in with a half-inhibitory concentration (IC50) of 5700 nM.
In turn, `CNC(=O)c1nc[nH]c1C(=O)Nc1ccc(NC(=O)c2c(F)ccc(F)c2Cl)cc1` [Example 374, N^5-{4-[(2-chloro-3,6-difluorobenzoyl)amino]phenyl}-N^4-methyl-1H-imidazole-4,5-dicarboxamide] had a concentration for half-maximal inhibition (IC50) of 1600 nM.
Regarding `CNC(=O)c1nc[nH]c1C(=O)Nc1ccc(NC(=O)c2c(C)cccc2F)cc1` [Example 375, N^5-{4-[(2-fluoro-6-methylbenzoyl)amino]phenyl}-N^4-methyl-1H-imidazole-4,5-dicarboxamide], it took 1200 nM to reach half-maximal inhibition (IC50).
Take `CNC(=O)c1nc[nH]c1C(=O)Nc1ccc(NC(=O)c2ccon2)cc1` [Example 376, N^4-methyl-N^5-{4-[(1,2-oxazol-3-ylcarbonyl)amino]phenyl}-1H-imidazole-4,5-dicarboxamide]: the concentration for half-maximal inhibition (IC50) was > 10000 nM.
To `CNC(=O)c1nc[nH]c1C(=O)Nc1ccc(NC(=O)c2cc(F)c(F)cc2C)cc1` [Example 377, N^5-{4-[(4,5-difluoro-2-methylbenzoyl)amino]phenyl}-N^4-methyl-1H-imidazole-4,5-dicarboxamide] belongs 470 nM; to `O=C(Nc1ccc(NC(=O)c2nc[nH]c2C(=O)NCCN2CCCCC2)cc1)c1ccccc1Cl` [Example 381, N^4-{4-[(2-chlorobenzoyl)amino]phenyl}-N^5-[2-(piperidin-1-yl)ethyl]-1H-imidazole-4,5-dicarboxamide], 20 nM.
In the case of `O=C(Nc1ccc(NC(=O)c2[nH]cnc2C(=O)NCCc2ccccc2)cc1)c1ccc(F)cc1Cl` [Example 384, N^5-{4-[(2-chloro-4-fluorobenzoyl)amino]phenyl}-N^4-(2-phenylethyl)-1H-imidazole-4,5-dicarboxamide], half-maximal inhibition (IC50) was put at 1500 nM.
`O=C(Nc1ccc(NC(=O)c2[nH]cnc2C(=O)NCCc2ccccn2)cc1)c1ccc(F)cc1Cl` [Example 387, N^5-{4-[(2-chloro-4-fluorobenzoyl)amino]phenyl}-N^4-[2-(pyridin-2-yl)ethyl]-1H-imidazole-4,5-dicarboxamide] returned an IC50 of 100 nM.
`CCN(CC)CCCCNC(=O)c1nc[nH]c1C(=O)Nc1ccc(NC(=O)c2ccc(F)cc2Cl)cc1` [Example 393, N^5-{4-[(2-chloro-4-fluorobenzoyl)amino]phenyl}-N^4-[4-(diethylamino)butyl]-1H-imidazole-4,5-dicarboxamide] came in with an IC50 of 300 nM.
`O=C(Nc1ccc(NC(=O)c2[nH]cnc2C(=O)NCCc2ccncc2)cc1)c1ccc(F)cc1Cl` [Example 394, N^5-{4-[(2-chloro-4-fluorobenzoyl)amino]phenyl}-N^4-[2-(pyridin-4-yl)ethyl]-1H-imidazole-4,5-dicarboxamide] displayed an IC50 of 50 nM.
In turn, `O=C(Nc1ccc(NC(=O)c2nc[nH]c2C(=O)NCC2CCOCC2)cc1)c1ccc(F)cc1Cl` [Example 397, N^5-{4-[(2-chloro-4-fluorobenzoyl)amino]phenyl}-N^4-(tetrahydro-2H-pyran-4-ylmethyl)-1H-imidazole-4,5-dicarboxamide] yielded a half-maximal inhibitory concentration (IC50) of 240 nM.
Take `O=C(Nc1ccc(NC(=O)c2[nH]cnc2C(=O)NCCc2cccnc2)cc1)c1ccc(F)cc1Cl` [Example 405, N^5-{4-[(2-chloro-4-fluorobenzoyl)amino]phenyl}-N^4-[2-(pyridin-3-yl)ethyl]-1H-imidazole-4,5-dicarboxamide]: it took 100 nM to reach half-maximal inhibition (IC50).
